Counter-ions that a name gives are not always drawn.
Assays:
human 5-HT1A receptor = target: T1, human 5-HT1A receptor (Homo sapiens, UniProt P08908); assay: Displacement of [3H]8-OH-DPAT from the 5-HT1A receptor in transfected CHO cells; details: [3H]-8-OH-DPAT 1.5 nM; CHO cells with human 5-HT1A receptor; nonspecific binding with 10 μM 5-HT; room temperature; read-out: 5-HT1A Affinity (IC50)
T1 construct: expressed in transfected cells; host or cells: CHO cells (stably transfected)
T1 sequence (P08908 1-422): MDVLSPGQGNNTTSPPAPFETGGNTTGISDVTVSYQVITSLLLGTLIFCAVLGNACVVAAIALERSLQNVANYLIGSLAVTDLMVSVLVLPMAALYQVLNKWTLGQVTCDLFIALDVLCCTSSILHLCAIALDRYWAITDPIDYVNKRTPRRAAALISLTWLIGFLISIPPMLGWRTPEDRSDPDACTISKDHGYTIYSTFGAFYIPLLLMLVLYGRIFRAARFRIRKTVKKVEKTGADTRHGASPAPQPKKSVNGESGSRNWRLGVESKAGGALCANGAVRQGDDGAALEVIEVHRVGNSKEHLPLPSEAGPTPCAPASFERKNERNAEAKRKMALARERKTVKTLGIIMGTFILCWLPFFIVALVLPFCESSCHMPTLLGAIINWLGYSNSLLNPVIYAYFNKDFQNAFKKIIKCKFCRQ
Source text: Affinity for the serotonin 5-HT1A receptor was established by assaying the test compound's ability to displace [3H]8-OHDPAT (dipropylaminotetralin) from its binding site on the receptor complex in CHO cells stably transfected with the human 5-HT1A receptor following a variation of a procedure of J. Zgombick et al., Naunyn-Schmiedeberg's Arch. Pharmacol., 354, 226-236 (1996), as described by J. Dunlop, Y. Zhang, D. L. Smith and L. E. Schechter, Journal of Pharmacological and Toxicological Methods 40, 47-55 (1998). The variation includes: the use of cells containing clonal human 5-HT1A receptor in place of 5-HT1D receptor; the use of [3H]-8-OH-DPAT (1.5 nM) as radioligand in place of [3H]-LSD; nonspecific binding determined with 10 μM 5-HT; and the test procedure was run at room temperature rather than 37° C.

| Compound | melting point | IC50 (human 5-HT1A receptor) |
| --- | --- | --- |
| COc1ccccc1N1CCN(C[C@@H](C)N(C(=O)c2ccccc2)C(=O)c2ccccc2)CC1 (as salt: fumarate) (hydrate or solvate) [Example 16, (R)-N-Benzoyl-N-{1-methyl-2-[4-(2-methoxyphenyl)-piperazin-1-yl]-ethyl}-benzamide semifumarate-hemihydrate] | 115 to 120 °C |  |
| O=C(C1CCCCC1)N(CCN1CCN(c2cccc3c2OCCO3)CC1)C(=O)C1CCCCC1 (as salt: hydrochloride) (hydrate or solvate) [Example 8, Cyclohexanecarboxylic acid cyclohexanecarbonyl-{2-[4-(2,3-dihydro-benzo[1,4]-dioxin)-5-yl}-piperazin-1-yl]-ethyl}-amide sesquihydrochloride monohydrate] | 148 to 149 °C |  |
| O=C(c1ccccc1)N(CCN1CCN(c2cccc3c2OCCO3)CC1)C(=O)C1CCCCC1 (as salt: hydrochloride) (hydrate or solvate) [Example 14, Cyclohexanecarboxylic acid benzoyl-{2-[4-(2,3-dihydro-benzo[1,4]dioxin-5-yl)-1-piperazin-1-ylethyl]-amide hydrochloride sesquihydrate] | 169 to 171 °C |  |
| COc1ccccc1N1CCN(CCN(C(=O)C2CCCCC2)C(=O)C2CCCCC2)CC1.Cl.Cl [Example 6, Cyclohexanecarboxylic acid cyclohexanecarbonyl-{2-[4-(2-methoxyphenyl)-piperazin-1-yl]-ethyl}-amide dihydrochloride] | 159 to 160 °C | 3.1 nM |
| Cl.Cl.O=C(C1CCCCC1)N(CCN1CCN(c2cccc3[nH]ccc23)CC1)C(=O)C1CCCCC1 [Example 7, Cyclohexanecarboxylic acid cyclohexanecarbonyl-{2-[4-(1H-indol-4-yl)-piperazin-1-yl]-ethyl}-amide dihydrochloride] | 144 to 146 °C | 4.55 nM |
| O=C(C1CCCCC1)N(CCN1CCN(c2cccc3c2OCCO3)CC1)C(=O)C1CCCCC1 [Example 8, Cyclohexanecarboxylic acid cyclohexanecarbonyl-{2-[4-(2,3-dihydro-benzo[1,4]-dioxin)-5-yl}-piperazin-1-yl]-ethyl}-amide sesquihydrochloride monohydrate] |  | 4.77 nM |
| O=C(c1ccccc1)N(CCN1CCN(c2cccc3c2OCCO3)CC1)C(=O)C1CCCCC1 [Example 14, Cyclohexanecarboxylic acid benzoyl-{2-[4-(2,3-dihydro-benzo[1,4]dioxin-5-yl)-1-piperazin-1-ylethyl]-amide hydrochloride sesquihydrate] |  | 5.13 nM |
| COc1ccccc1N1CCN(CCN(C(=O)c2ccccc2)C(=O)c2ccccc2)CC1 [Example 15, N-Benzoyl-N-{-2-[4-(2-methoxyphenyl)-piperazin-1-yl]-ethyl}-benzamide hydrochloride hemihydrate] |  | 23.4 nM |
| COc1ccccc1N1CCN(C[C@@H](C)N(C(=O)c2ccccc2)C(=O)c2ccccc2)CC1 [Example 16, (R)-N-Benzoyl-N-{1-methyl-2-[4-(2-methoxyphenyl)-piperazin-1-yl]-ethyl}-benzamide semifumarate-hemihydrate] |  | 79.6 nM |
| (R)-Cyclohexanecarboxylic acid cyclohexanecarbonyl-{1-methyl-2-[4-(2-methoxyphenyl)-piperazin-2-yl]-ethyl}-amide fumarate [Example 9] |  | 2.69 nM |

Next, values leading:

| melting point | IC50 (human 5-HT1A receptor) | Compound |
| --- | --- | --- |
| 146 to 147 °C |  | COc1ccccc1N1CCN(C[C@@H](Cc2ccccc2)N(C(=O)C2CCCCC2)C(=O)C2CCCCC2)CC1 (as salt: fumarate) [Example 10, (R)-Cyclohexanecarboxylic acid cyclohexanecarbonyl-{1-benzyl)-2-[4-(2-methoxy-phenyl)-piperazin-1yl]-ethyl}-amide fumarate] |
| 106 to 108 °C |  | COc1ccc(C[C@H](CN2CCN(c3ccccc3OC)CC2)N(C(=O)C2CCCCC2)C(=O)C2CCCCC2)cc1 (as salt: hydrochloride) [Example 11, (R)-Cyclohexanecarboxylic acid cyclohexanecarbonyl-{1-(4-methoxybenzyl)-2-[4-(2-methoxyphenyl)-piperazin-1-yl]-etlyl}-amide hydrochloride] |
| 136 to 138 °C |  | COc1ccccc1N1CCN(C[C@@H](Cc2cn(C)c3ccccc23)N(C(=O)C2CCCCC2)C(=O)C2CCCCC2)CC1.Cl.O (hydrate or solvate) [Example 12, (R)-Cyclohexanecarboxylic acid cyclohexanecarbonyl-{1-[4-(2-methoxyphenyl)-piperazin-1-ylmethyl]-2-(1-methyl-1H-indol-3-yl)ethyl}-amide hydrochloride monohydrate] |
|  | 61 nM | COc1ccccc1N1CCN(C[C@@H](Cc2ccccc2)N(C(=O)C2CCCCC2)C(=O)C2CCCCC2)CC1 [Example 10, (R)-Cyclohexanecarboxylic acid cyclohexanecarbonyl-{1-benzyl)-2-[4-(2-methoxy-phenyl)-piperazin-1yl]-ethyl}-amide fumarate] |
|  | 0.38 nM | COc1ccc(C[C@H](CN2CCN(c3ccccc3OC)CC2)N(C(=O)C2CCCCC2)C(=O)C2CCCCC2)cc1 [Example 11, (R)-Cyclohexanecarboxylic acid cyclohexanecarbonyl-{1-(4-methoxybenzyl)-2-[4-(2-methoxyphenyl)-piperazin-1-yl]-etlyl}-amide hydrochloride] |
|  | 0.78 nM | COc1ccccc1N1CCN(C[C@@H](Cc2cn(C)c3ccccc23)N(C(=O)C2CCCCC2)C(=O)C2CCCCC2)CC1 [Example 12, (R)-Cyclohexanecarboxylic acid cyclohexanecarbonyl-{1-[4-(2-methoxyphenyl)-piperazin-1-ylmethyl]-2-(1-methyl-1H-indol-3-yl)ethyl}-amide hydrochloride monohydrate] |
